Entries after “also recorded” stand apart in the source; their conditions may differ.
Experiments:
Vγ9Vδ2 T cells = experiment: IL-2 dose range with fixed dose of Phosphostim in cynomolgus macaque, Vγ9Vδ2 T cell expansion by flow cytometry; type: in vivo, cynomolgus monkeys (M. fascicularis); settings: Phosphostim 48 mg/kg i.v. once, day 5 vs day 0
Procedure: As detailed in Example 2, a study has been set up on nonhuman primates (Cynomolgus macaques) to investigate the effect of the IL-2 dose on γδ T cell expansion in vivo, with a fixed dose of Phosphostim™ (48 mg/kg). Blood extracts have been dosed by flow cytometry on day 5 and the γδ T cell expansion has been expressed in expansion percentage compared to the basal γδ T cell count.
Follow up of Vγ9Vδ2 T cells in vivo in the macaque has been performed as usual by flow cytometry on days 0 (pre-dose) and 5 of treatment. […]
IL2: recombinant human IL2, Proleukin™, CHIRON; administered daily by subcutaneous (s.c.) route.
Phosphostim™ dose 48 mg/kg administered as 30-min infusion by intravenous (i.v.) route.
Twelve cynomolgus monkeys (M. fascicularis) aged 2.5 to 3.5 years at the start of the study. These animals were naïve of any previous treatment with phosphoantigens or IL2.
The animals have been allocated to 4 dose-groups (0.075, 0.3, 1.2 and 2.4 million UI per day for 7 days), with 3 animals per dose, receiving IL2 daily for 7 days have, and a fixed dose of Phosphostim™ 200 (48 mg/kg) once, on the first day of treatment, with 3 animals per dose.

γδ T cells [1] = experiment: Phase II clinical trial in mRCC, γδ T cell fold increase day 7 vs pre-dose (flow cytometry); type: in vivo, human
Procedure: Blood samples (4 ml) were withdrawn into EDTA containing tubes. Tubes were shipped overnight at room temperature (RT) before flow cytometry analyses.
Peripheral lymphocytes were analyzed by flow cytometry on total blood, after triple staining with anti-Vδ2FITC, anti-CD3PE and anti-CD25PC5 antibodies (Vδ2-FITC: IMMU389 clone, Immunotech-Beckman-Coulter, Marseilles, France; CD3-PE: UCHT1 clone, Immunotech-Beckman-Coulter; CD25PC5: M-A251 clone, Becton Dickinson, Le Pont de Claix, France).
Briefly, 100 μl patient blood was incubated 15 min at RT with 10 μl anti-Vdelta2-FITC, 10 μl anti-CD3-PE and 10 μl anti-CD25PC5 antibodies. Antibodies were washed with 3 ml 1×PBS, centrifuged for 4 min at 1300 rpm at RT and supernatant was discarded. Red cells were lysed with the OptiLyse B reagent (Immunotech-Beckman-Coulter, Marseilles, France) according to the manufacturer's instructions. At the final step, stained white blood cells were recovered by centrifugation and resuspended in 300 μl 1×PBS+0.2% PFA. Flow cytometry analysis on viable cells was performed on a FacsSCAN apparatus (Becton Dickinson) with the FacsDiva software.
(§1) A phase II clinical trial in mRCC was set up, to test the efficacy of a therapeutic regimen with a fixed dose of Phosphostim™ (750 mg/m^2, 50 ml infusion in 30 min) and two doses of IL-2.
(§2) Patients in Arm A were treated with an IL-2 dose of 2 MIU total daily (equivalent to approximately 1 MIU/m^2 daily). Patients in Arm B were treated with an IL-2 dose of 8 MIU total daily. For practical reasons, and as a human body surface varies from 1.5 to 2.1 m^2 depending on each variable of the patient, a single dose for all the patients of Arm B was fixed. It will be appreciated that when taking the variations in body surface into account, this 8 MIU total daily dose of IL-2 can also be expressed as a range from […] daily.
(§3) Patients suffering from mRCC were treated with a fixed dose of Phosphostim™ (750 mg/m^2, i.v. infusion of 30 min) and IL-2, at a dose of 2 MIU subcutaneous (s.c.) daily (arm A, 18 patients), or 8 MIU s.c. daily (arm B, 21 patients).
(§4) Phosphostim™ was administered once on day 1 which is the first day of treatment. IL-2 is administered daily s.c. from day 1 to day 5. On day 1, IL-2 is administered 10 minutes after the end of Phosphostim™ infusion.
γδ T cell population was measured through cytometry on day 0 (before the beginning of the treatment) and on day 7. The expansion of γδ T cell was obtained in fold increase of expansion compared to the basal γδ T cell count.

NK cells = experiment: Phase II clinical trial in mRCC, NK cell fold increase day 7 vs pre-dose; type: in vivo, human; settings: Phosphostim with IL-2 2 MIU or 8 MIU total daily (FIG. 3)
Procedure: (§5) FIG. 3 has been obtained from observations made during the clinical trial as described above. On day 7, cell subsets were determined and compared to the count made on day 0, before the treatment.
(§6) A specific pharmacological expansion of γδ T cell with Phosphostim™ was observed, and this expansion was related to dose of IL-2 administered. […] Moreover, despite an increased dose of IL-2 compared to previous publications, this expansion is still very specific to γδ T cells.

total T cells = experiment: Phase II clinical trial in mRCC, total T cell fold increase day 7 vs pre-dose; type: in vivo, human; settings: Phosphostim with IL-2 2 MIU or 8 MIU total daily (FIG. 3)
Procedure: as §5, §6

[2] = Phase II clinical trial in mRCC, tolerance / toxicity; type: in vivo, human; settings: mRCC patients
Procedure: as §1, §2, §3, §4

γδ T cells [3] = experiment: Phase II clinical trial in B-NHL with rituximab, γδ T cell fold increase; type: in vivo, human; settings: for γδ T cell fold increase as compared to pre-dose (mean): B-NHL, Phosphostim once day 7, rituximab 375 mg/m^2, measured day 0 and day 145
Procedure: (§7) 5 patients suffering from B-NHL are treated with 4 MIU total in human daily (arm A, 3 patients), or 8 MIU total in human daily (arm B, 2 patients). The treatment regimen used for this study is set out in FIG. 4B.
(§8) Rituxan™ (rituximab) is administered at a dose of 375 mg/m^2, on day 0 and then on day 7, 14 and 21, which corresponds to the common Rituxan™ treatment. Phosphostim™ is administered once on day 7 which is the first day of treatment. IL-2 is administered daily subcutaneous (s.c.) from day 7 to day 11. On day 7, IL-2 is administered 10 minutes after the end of Phosphostim™ infusion.
γδ T cell population is measured through cytometry on day 0 (before the beginning of the treatment) and on day 145 (corresponds to day 7 from the beginning of the Phosphostim™ treatment. The expansion of γδ T cell is obtained in fold increase compared to the basal γδ T cell count.

[4] = Phase II clinical trial in B-NHL with rituximab, tolerance / toxicity; type: in vivo, human; settings: B-NHL patients
Procedure: as §7, §8

γδ T cells [5] = experiment: Phase I BrHPP dose escalation with IL-2 1 MU/m^2, γδ T cell amplification (FIG. 7); type: in vivo, human; settings: BrHPP 100, 300, 600 and 900 MU/m^2 iv 30 min infusion day 1; IL-2 1 MU/m^2 daily for four days
Procedure: The first four columns (corresponding to 100, 300, 600 and 900 MU/m^2 doses of BrHPP) correspond to patients treated with BrHPP (iv, 30 min infusion on day 1) and IL-2 (1 MU/m^2 daily for four days starting on day 1) whereas the last two columns represent B-NHL patients who have been treated with 4 MIU total in human daily (arm A), or 8 MIU total in human daily (arm B), in the treatment setting described for FIG. 6.

[6] = in vivo; cited from earlier work
γδ T cells [7] = settings: adults with multiple myeloma, intravenous 60-90 mg, within one to three weeks (Kunzmann, 1999); cited from earlier work

In the case of “3-(bromomethyl)-3-butanol-1-yl-diphosphate [Phosphostim™]”, the “γδ T cell expansion” value (Vγ9Vδ2 T cells; IL-2 0.075 MIU/animal/day s.c. for 7 days) is reported as “not sufficient to induce a γδT cell specific amplification; also recorded: no effect”, the “γδ T cell expansion” value (Vγ9Vδ2 T cells; IL-2 0.3 MIU/animal/day s.c. for 7 days) is reported as “specific and significant γδcell expansion; also recorded: weak γδT cell increase” and the “γδ T cell expansion” value (Vγ9Vδ2 T cells; IL-2 1.2 MIU/animal/day s.c. for 7 days) is reported as “the expansion is higher; also recorded: significantly higher increase; also recorded: a plateau is observed at this dose”. The “γδ T cell expansion” value (Vγ9Vδ2 T cells; IL-2 2.4 MIU/animal/day s.c. for 7 days) was “the expansion is higher; also recorded: significantly higher increase; also recorded: does not trigger a better expansion than 1.2 MIU/animal/daily”, the “γδ T cell expansion, arm B compared to arm A” value (γδ T cells [1]; IL-2 8 MIU total daily vs 2 MIU total daily, fixed Phosphostim 750 mg/m^2) was “significantly better γδ T cell expansion; also recorded: significantly higher” and the “γδ T cell fold increase on day 7 as compared to pre-dose (mean)” value (γδ T cells [1]; arm A: IL-2 2 MIU total daily s.c. day 1-5, Phosphostim 750 mg/m^2 i.v. day 1, 18 patients (FIG. 2)) was 3 fold. The “γδ T cell fold increase on day 7 as compared to pre-dose (mean)” value (γδ T cells [1]; arm A: IL-2 2 MIU total daily, updated results, 29 patients (FIG. 5)) was 2 fold, the “γδ T cell fold increase on day 7 as compared to pre-dose (mean)” value (γδ T cells [1]; arm B: IL-2 8 MIU total daily s.c. day 1-5, Phosphostim 750 mg/m^2 i.v. day 1, 21 patients (FIG. 2)) was 12 fold and the “γδ T cell fold increase on day 7 as compared to pre-dose (mean)” value (γδ T cells [1]; arm B: IL-2 8 MIU total daily, updated results, 31 patients (FIG. 5)) was 8 fold. The “NK cell fold increase on day 7 as compared to pre-dose” value (NK cells) was “are not expanded; also recorded: do not observe a significant NK cells expansion”, the “total T cell fold increase on day 7 as compared to pre-dose” value (total T cells) was “are not expanded; also recorded: nor a significant total T cell expansion” and the “toxicity in Arm B compared to Arm A” value ([2]; IL-2 8 MIU vs 2 MIU total daily with Phosphostim) was “none of the patients in arm B experienced an adverse toxicity effect; also recorded: no significant difference in toxicity”. For the same compound, the “tolerance to the IL-2 dose administered with Phosphostim” value ([2]; arm B IL-2 8 MIU total daily) was “good tolerance”, the “γδ T cell fold increase as compared to pre-dose (mean)” value (γδ T cells [3]; arm A: IL-2 4 MIU total daily s.c. day 7-11, 3 patients) was 17 fold and the “γδ T cell fold increase as compared to pre-dose (mean)” value (γδ T cells [3]; arm B: IL-2 8 MIU total daily s.c. day 7-11, 2 patients) was 46 fold. The “γδ T cell amplification, higher IL-2 dose compared to lower dose” value (γδ T cells [3]; IL-2 8 MIU total daily vs lower IL-2 doses (FIGS. 6 and 7)) was “much better γδ T cell amplification”, the “toxicity in Arm B compared to Arm A” value ([4]; IL-2 8 MIU vs 4 MIU total daily) was “no significant difference in toxicity” and the “tolerance to the IL-2 dose administered with Phosphostim and rituximab” value ([4]; arm B IL-2 8 MIU total daily) was “good tolerance”. For the same compound, the “influence of the quantity of BrHPP on the γδ T cell amplification” value (γδ T cells [5]) was “slight influence”.

In the case of “des-alanyl-1, serine-125-human interleukin-2 [IL-2]”, the toxicity grade reported [6] is listed as “grade III or IV toxicity”.

For NCCC(O)(P(=O)(O)O)P(=O)(O)O [pamidronate, 3-amino-1-hydroxypropane-1,1-diphosphonic acid], the “circulating γδ T cells” value (γδ T cells [7]) is given as “increases of circulating γδ T cells”.

Reference: patent US20100189681A1, “Methods of Using Phosphoantigens Together with Interleukin-2 for the Treatment of Cancer” (INNATE PHARMA S.A., priority 2007, published 2010)
